The values below come from patent publication US8877778B2, “Benzofurane compounds” (Hoffmann-La Roche Inc., priority 2010, dated 2014).

In one data set the target is human D3 receptor (Homo sapiens (Human), UniProt P35462). Briefly: Radioligand binding ([3H]-spiperone) to cloned receptors expressed in HEK-293 EBNA cells. The following applies: HEK293 EBNA cell membranes expressing human D3. Here is the method:
(§1) HEK293 EBNA cells were transiently transfected with expression plasmids encoding for the human D2 or D3 or for the human 5-HT2A receptor, respectively. The cells were harvested 48 h post-transfection, washed three times with cold PBS and stored at −80° C. prior to use. The pellet was suspended in cold 50 mM Tris-HCl buffer comprising 10 mM EDTA (pH 7.4) and was homogenized with a Polytron (Kinematica AG, Basel, Switzerland) for 20-30 sec at 12.000 rpm. After centrifugation at 48.000×g for 30 min at 4° C., the pellet was resuspended in cold 10 mM Tris-HCl buffer comprising 0.1 mM EDTA (pH 7.4), homogenized, and centrifuged as above. This pellet was further resuspended in a smaller volume of ice cold 10 mM Tris-HCl buffer comprising 0.1 mM EDTA (pH 7.4) and homogenized with a Polytron for 20-30 sec at 12.000 rpm. The protein content of this homogenate was determined with the Bio-Rad (Bradford) Protein Assay (Biorad Laboratories GmbH, München, Germany) according to the instructions of the manufacturer using gamma globulin as the standard. This homogenate was stored at −80° C. in aliquots and thawed immediately prior to use.
(§2) Aliquots of membrane preparations were thawed at RT, resupended in assay buffer (D2, D3: 50 mM Tris-HCl, 120 mM NaCl, 5 mM MgCl2, 1 mM EDTA, 5 mM KCl, 1.5 mM CaCl2, pH=7.4; 5-HT2A: 50 mM Tris-HCl, 10 mM MgCl2, 1 mM EGTA, pH=7.4), homogenized with a Polytron for 20-30 sec at 12.000 rpm and adjusted to a final concentration of approximately 7.5 μg protein/well (D2, D3) and 15 μg protein/well (5-HT2A), respectively.
(§3) The binding affinity (Ki) of the compounds was determined using radioligand binding. Membranes were incubated in a total volume of 200 μl with a fixed concentration of radioligand (final concentration approximately 0.7 nM [^3H]-spiperone for D2, 0.5 nM [^3H]-spiperone for D3, and 1.1 nM [^3H]-ketanserin for 5-HT2A) and ten concentrations of test compound in ranging between 10 μM-0.1 nM for 1 h at RT. At the end of the incubation, the reaction mixtures were filtered on to unifilter 96-well white microplates with bonded GF/C filters (Packard BioScience, Zürich, Switzerland; preincubated for 1 h in 0.1% polyethylenimine (PEI) in assay buffer) with a Filtermate 196 harvester (Packard BioScience) and washed 3 times with cold assay buffer. The nonspecific binding was determined with equally composed reaction mixtures in the presence of 10 μM unlabelled spiperone. Per well 45 μl of Microscint 40 (Perkin Elmer, Schwerzenbach, Switzerland) was added, plates for sealed, shaken for 20 min and counted for 3 min on a Topcount Microplate Scintillation Counter (Can berra Packard SA, Zürich, Switzerland) with quenching correction.
(§4) The CPM value for each duplicate of a concentration of competing compound was averaged (y1), then the % specific binding was calculated according to the equation (((y1−non-specific)/(total binding−non-specific))×100). Graphs were plotted with the % specific binding using XLfit, a curve fitting program that iteratively plots the data using Levenberg-Marquardt algorithm. The single site competition analysis equation used was y=A+((B−A)/(1+((x/C)D))), where y is the % specific binding, A is the minimum y, B is the maximum y, C is the IC50, x is the log 10 of the concentration of the competing compound and D is the slope of the curve (the Hill Coefficient). […] The affinity constant (Ki) was calculated using the Cheng-Prusoff equation Ki=(IC50/1+([L]/Kd), where [L] is the concentration of radioligand and Kd is the dissociation constant of the radioligand at the receptor as determined by the saturation isotherm.

The target in the next data set is human D2 receptor (Homo sapiens (Human), UniProt P14416). The description is as above. The following applies: HEK293 EBNA cell membranes expressing human D2. As for the experimental part: as §1, §2, §3, §4
Sequence of human D2 receptor (P14416 whole entry): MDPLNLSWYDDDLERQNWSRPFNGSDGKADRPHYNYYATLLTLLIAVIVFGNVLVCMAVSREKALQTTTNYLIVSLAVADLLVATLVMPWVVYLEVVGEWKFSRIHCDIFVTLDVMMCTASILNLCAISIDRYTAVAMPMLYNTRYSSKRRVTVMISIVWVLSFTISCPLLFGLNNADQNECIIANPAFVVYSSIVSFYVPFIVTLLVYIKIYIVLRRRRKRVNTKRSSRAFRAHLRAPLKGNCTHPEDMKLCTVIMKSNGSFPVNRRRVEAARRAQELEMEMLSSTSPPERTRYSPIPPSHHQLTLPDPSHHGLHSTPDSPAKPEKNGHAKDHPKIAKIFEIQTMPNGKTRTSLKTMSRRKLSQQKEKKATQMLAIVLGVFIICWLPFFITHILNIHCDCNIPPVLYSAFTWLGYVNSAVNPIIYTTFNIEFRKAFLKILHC
A further data set addresses human 5-HT2A receptor (Homo sapiens (Human), UniProt P28223). In words: Radioligand binding ([3H]-ketanserin) to cloned receptors expressed in HEK-293 EBNA cells. Particulars: HEK293 EBNA cell membranes expressing human 5-HT2A. As for the experimental part: as §1, §2, §3, §4

Sequence of human 5-HT2A receptor (P28223 whole entry): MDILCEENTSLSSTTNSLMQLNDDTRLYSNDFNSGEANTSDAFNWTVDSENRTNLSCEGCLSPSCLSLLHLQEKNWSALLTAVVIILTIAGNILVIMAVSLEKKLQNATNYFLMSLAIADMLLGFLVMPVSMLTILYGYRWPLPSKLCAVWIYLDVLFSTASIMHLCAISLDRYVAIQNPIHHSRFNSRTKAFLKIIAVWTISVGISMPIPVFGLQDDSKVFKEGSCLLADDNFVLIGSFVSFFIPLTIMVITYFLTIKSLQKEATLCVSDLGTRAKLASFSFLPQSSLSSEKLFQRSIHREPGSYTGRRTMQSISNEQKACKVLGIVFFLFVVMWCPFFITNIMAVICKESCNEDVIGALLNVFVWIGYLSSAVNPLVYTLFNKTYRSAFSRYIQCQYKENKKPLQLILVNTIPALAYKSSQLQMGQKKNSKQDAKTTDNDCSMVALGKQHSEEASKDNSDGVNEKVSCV
Sequence of human D3 receptor (P35462 whole entry): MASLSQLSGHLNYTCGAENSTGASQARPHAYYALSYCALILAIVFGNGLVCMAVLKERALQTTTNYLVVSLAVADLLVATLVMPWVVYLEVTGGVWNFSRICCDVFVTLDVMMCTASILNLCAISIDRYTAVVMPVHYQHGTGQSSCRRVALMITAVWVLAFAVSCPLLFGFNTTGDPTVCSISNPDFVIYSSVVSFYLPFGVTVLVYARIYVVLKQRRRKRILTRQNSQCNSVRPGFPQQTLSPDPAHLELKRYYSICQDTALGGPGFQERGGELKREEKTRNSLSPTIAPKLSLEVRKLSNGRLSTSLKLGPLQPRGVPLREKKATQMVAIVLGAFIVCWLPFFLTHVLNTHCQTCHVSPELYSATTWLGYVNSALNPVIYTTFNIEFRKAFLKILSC

For the molecule `O=C(N[C@H]1CC[C@H](CCN2CCC(c3cccc4c3CCO4)CC2)CC1)C(O)C(F)(F)F` (mixture of isomers) [Example 37, trans-(RS)—N-(4-{2-[4-(2,3-Dihydro-benzofuran-4-yl)-piperidin-1-yl]-ethyl}-cyclohexyl)-3,3,3-trifluoro-2-hydroxy-propionamide], the melting point – broadly, the temperature, or range, at which the solid turns liquid – amounted to 179 °C. Moreover, the Ki (as a rule, the dissociation constant of the complex between target and ligand, obtained from inhibition or displacement) at human D3 receptor worked out at 9.2 nM. The Ki on human D2 receptor came to 241 nM.

`O=C(N[C@H]1CC[C@H](CCN2CCC(c3cccc4c3CCO4)CC2)CC1)C1CCOC1` (mixture of isomers) [Example 52, (RS)-Tetrahydro-furan-3-carboxylic acid trans-(4-{2-[4-(2,3-dihydro-benzofuran-4-yl)-piperidin-1-yl]-ethyl}-cyclohexyl)-amide] gave a melting point of 211 °C. The Ki on human 5-HT2A receptor amounted to 24.6 nM. For the same molecule, the Ki on human D3 receptor was found to be 5.5 nM. Besides, on human D2 receptor, the Ki came out at 135 nM.

`CC(=O)N[C@H]1CC[C@H](CCN2CCC(c3cccc4occc34)CC2)CC1` [Example 1, trans-N-{4-[2-(4-Benzofuran-4-yl-piperidin-1-yl)-ethyl]-cyclohexyl}-acetamide] came in with a melting point of 167 °C. Also, at human 5-HT2A receptor, the Ki stood at 6.8 nM. The Ki at human D3 receptor came out at 2.9 nM. Moreover, the inhibition constant Ki at human D2 receptor amounted to 187 nM.

With `COCCC(=O)N[C@H]1CC[C@H](CCN2CCC(c3cccc4occc34)CC2)CC1` [Example 2, trans-N-{4-[2-(4-Benzofuran-4-yl-piperidin-1-yl)-ethyl]-cyclohexyl}-3-methoxy-propionamide], the melting point was 154 °C. The Ki at human 5-HT2A receptor was determined as 7.1 nM. For the same molecule, at human D3 receptor, the Ki was 3.1 nM. Moreover, on human D2 receptor, the Ki was 288 nM.

`O=C(N[C@H]1CC[C@H](CCN2CCC(c3cccc4occc34)CC2)CC1)C1CCOCC1` [Example 3, Tetrahydro-pyran-4-carboxylic acid trans-{4-[2-(4-benzofuran-4-yl-piperidin-1-yl)-ethyl]-cyclohexyl}-amide] gave a melting point of 217 °C. The Ki on human 5-HT2A receptor came to 2.2 nM. Moreover, the Ki at human D3 receptor stood at 11.9 nM. Also, the Ki at human D2 receptor was 305 nM.

`O=C(CC1CCOCC1)N[C@H]1CC[C@H](CCN2CCC(c3cccc4occc34)CC2)CC1` [Example 4, trans-N-{4-[2-(4-Benzofuran-4-yl-piperidin-1-yl)-ethyl]-cyclohexyl}-2-(tetrahydro-pyran-4-yl)-acetamide] returned a melting point of 181 °C. Moreover, on human 5-HT2A receptor, the Ki stood at 9 nM. Further, on human D3 receptor, the Ki came out at 5.7 nM. Besides, at human D2 receptor, the Ki was determined as 219 nM.

`CC(=O)N[C@H]1CC[C@H](CCN2CCC(c3cccc4c3CCO4)CC2)CC1` [Example 5, trans-N-(4-{2-[4-(2,3-Dihydro-benzofuran-4-yl)-piperidin-1-yl]-ethyl}-cyclohexyl)-acetamide] returned a melting point of 183 °C. Moreover, the Ki at human 5-HT2A receptor was determined as 37.2 nM. Besides, the Ki at human D3 receptor turned out to be 6 nM. Further, the Ki on human D2 receptor was 298 nM.

Turning to `COCCC(=O)N[C@H]1CC[C@H](CCN2CCC(c3cccc4c3CCO4)CC2)CC1` [Example 6, trans-N-(4-{2-[4-(2,3-Dihydro-benzofuran-4-yl)-piperidin-1-yl]-ethyl}-cyclohexyl)-3-methoxy-propionamide], the melting point was 182 °C. Further, the Ki at human 5-HT2A receptor was 38.7 nM. The Ki at human D3 receptor was found to be 6.6 nM. Also, at human D2 receptor, the Ki came to 509 nM.

In the case of `O=C(N[C@H]1CC[C@H](CCN2CCC(c3cccc4c3CCO4)CC2)CC1)C1(O)CCC1` [Example 39, 1-Hydroxy-cyclobutanecarboxylic acid trans-(4-{2-[4-(2,3-dihydro-benzofuran-4-yl)-piperidin-1-yl]-ethyl}-cyclohexyl)-amide], the Ki at human 5-HT2A receptor was 12.3 nM; on human D3 receptor, 27.3 nM; at human D2 receptor it was 306 nM.
